Results published in publication PMC10042772 (Targeted Oncology, 2023).

Tests used:
MDA-MB-453 cells = assay: CellTiter-Glo 2.0 viability assay, 10 days; type: cell-based, human; conditions: MDA-MB-453, 10 days of continuous exposure
CBP/p300 over BRD4 = conditions: selective CBP/p300 binder; cited from earlier work
[1] = cited from earlier work

SMILES	times less active than FT-6876 at inhibiting proliferation (MDA-MB-453 cells) [times]	selectivity over BRD4 and other BRD and BET family members (CBP/p300 over BRD4) [fold]	microsomal stability [1]
CNC(=O)c1ccc(N2C(=S)N(c3ccc(C#N)c(C(F)(F)F)c3)C(=O)C2(C)C)cc1F [Enzalutamide, enzalutamide]	45		
COc1ccc(CCc2nc3cc(-c4c(C)noc4C)ccc3n2C[C@H](C)N2CCOCC2)cc1Cl [SGC-CBP30]		40	poor microsomal stability
